From patent US20200060276A1, “THIAZOLE COMPOUND AND HERBICIDE” (OAT Agrio Co., Ltd., priority 2017, published 2020)

Key:
Assay type in all cases: in vivo
[1] = test system: Echinochloa crus-galli (L.) P. Beauv. var. formosensis Ohwi; experiment: Test for Herbicidal Effect in Flooding Treatment (#1), ECHDG; conditions: flooding treatment at seeding, dose 2 kg/ha, visual observation on day 21
Method in brief: (§1)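 Sieved soil in cups was flooded and left 24 h before weed seeds were sown. Compounds in acetone, diluted with Tween 80-containing water, were dropped over the whole surface at 2 kg/ha. After 21 days in a glasshouse, growth inhibition was scored visually from 0 (<10%) to 5 (≥90% or complete withering).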

Monochoria vaginalis = experiment: Test for Herbicidal Effect in Flooding Treatment (#1), MONVA; conditions: flooding treatment at seeding, dose 2 kg/ha, visual observation on day 21
Method: (#1) Test for Herbicidal Effect in Flooding Treatment: Styrol cups each having an opening diameter of 8 cm (about 52 cm^2) were respectively filled with soil (45 ml) which had been passed through a sieve (2 mm). Water (about 115 ml) was mixed with the soil such that the soil was flooded. After the soil stood still for 24 hours, Monochoria vaginalis, Echinochloa crus-galli (L.) P. Beauv. var. formosensis Ohwi, Cyperus difformis (umbrella sedge), and Scirpus juncoides were seeded. Each of the compounds of the present invention was dissolved in acetone, and the obtained product was then diluted with water containing Tween 80®. Each of the resultant chemical solutions was dropped on the entire surface of an associated one of treatment sections, so that each section was treated with 1 ml of the respective chemical solution (a dose of 2 kg/ha). After the treatment, the plants were grown in a glasshouse. On day 21, a survey was conducted on the herbicidal activity by visual observation, and evaluation was made according to the following criteria. 0: Growth inhibition effect is less than 10%. 1: Growth inhibition effect is equal to or greater than 10%, and less than 30%. 2; Growth inhibition effect is equal to or greater than 30%, and less than 50%. 3: Growth inhibition effect equal to or greater than 50%, and less than 70%. 4: Growth inhibition effect is equal to or greater than 70%, and less than 90%. 5: Growth inhibition effect is equal to or greater than 90%, or complete withering is achieved. ECHDG=Echinochloa crus-galli (L.) P. Beauv. var. formosensis Ohwi, MONVA=Monochoria vaginalis, SCIJU=Scirpus juncoides, CYMIC=Cyperus microiria.

Scirpus juncoides = experiment: Test for Herbicidal Effect in Flooding Treatment (#1), SCIJU; conditions: flooding treatment at seeding, dose 2 kg/ha, visual observation on day 21
Method in brief: as §1

[2] = test system: Echinochloa crus-galli (L.) P. Beauv. var. formosensis Ohwi; experiment: Test for Herbicidal Effect in Flooding Treatment (#2), ECHDG at 2-2.5 leaf stage; conditions: for inhibition at 200 g/ha: Echinochloa crus-galli, 504 h, flooding treatment (#2), ECHDG at 2-2.5 leaf stage, dose of 0.2 kg/ha, day 21, visual observation, read-out: growth inhibition effect; for ECHDG (2-2.5L) #2 herbicidal effect (growth inhibition grade): flooding treatment at 2-2.5 leaf stage, dose 0.2 kg/ha, visual observation on day 21
Method in brief: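 Flooded muddy soil was seeded with the weed, and at 2–2.5 leaf stage compound in acetone/Tween 80 water was dropped on the water surface at 0.2 kg/ha. Plants were kept in a glasshouse and scored visually on day 21 from 0 (<10% growth inhibition) to 5 (≥90% or complete withering).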

Row | SMILES | ECHDG #1 herbicidal effect (growth inhibition grade) [1] | MONVA #1 herbicidal effect (growth inhibition grade) (Monochoria vaginalis) | SCIJU #1 herbicidal effect (growth inhibition grade) (Scirpus juncoides) | inhibition at 200 g/ha [2] [%] | ECHDG (2-2.5L) #2 herbicidal effect (growth inhibition grade) [2]
1 | COc1cccc(Cl)c1CS(=O)(=O)c1ncc(Cl)s1 [Compound 1C-6] | 5 (Growth inhibition effect is equal to or greater than 90%, or complete withering is achieved) | 5 (Growth inhibition effect is equal to or greater than 90%, or complete withering is achieved) | 5 (Growth inhibition effect is equal to or greater than 90%, or complete withering is achieved) | ≥ 90 | 5 (Growth inhibition effect is equal to or greater than 90%, or complete withering is achieved)
2 | COc1cccc(C(F)(F)F)c1CS(=O)(=O)c1ncc(Cl)s1 [Compound 1C-7] | 5 (Growth inhibition effect is equal to or greater than 90%, or complete withering is achieved) | 5 (Growth inhibition effect is equal to or greater than 90%, or complete withering is achieved) | 5 (Growth inhibition effect is equal to or greater than 90%, or complete withering is achieved) |  | 5 (Growth inhibition effect is equal to or greater than 90%, or complete withering is achieved)
3 | CCOc1ccc(Cl)c(F)c1CS(=O)(=O)c1ncc(Cl)s1 [Compound 1C-32] | 5 (Growth inhibition effect is equal to or greater than 90%, or complete withering is achieved) | 5 (Growth inhibition effect is equal to or greater than 90%, or complete withering is achieved) | 5 (Growth inhibition effect is equal to or greater than 90%, or complete withering is achieved) |  | 5 (Growth inhibition effect is equal to or greater than 90%, or complete withering is achieved)
4 | CCOc1ccc(Cl)c(Cl)c1CS(=O)(=O)c1ncc(Cl)s1 [Compound 1C-33, 5-chloro-2-[(2-ethoxy-5,6-dichlorophenyl)(methanesulfonyl)]-1,3-thiazole] | 5 (Growth inhibition effect is equal to or greater than 90%, or complete withering is achieved) | 5 (Growth inhibition effect is equal to or greater than 90%, or complete withering is achieved) | 5 (Growth inhibition effect is equal to or greater than 90%, or complete withering is achieved) | ≥ 90 | 5 (Growth inhibition effect is equal to or greater than 90%, or complete withering is achieved)
5 | O=S(=O)(Cc1c(Cl)cccc1OC(F)F)c1ncc(Cl)s1 [Compound 1C-42] | 5 (Growth inhibition effect is equal to or greater than 90%, or complete withering is achieved) | 5 (Growth inhibition effect is equal to or greater than 90%, or complete withering is achieved) | 5 (Growth inhibition effect is equal to or greater than 90%, or complete withering is achieved) |  | 5 (Growth inhibition effect is equal to or greater than 90%, or complete withering is achieved)
6 | O=S(=O)(Cc1c(F)cccc1OC(F)F)c1ncc(Cl)s1 [Compound 1C-43] | 5 (Growth inhibition effect is equal to or greater than 90%, or complete withering is achieved) | 5 (Growth inhibition effect is equal to or greater than 90%, or complete withering is achieved) | 5 (Growth inhibition effect is equal to or greater than 90%, or complete withering is achieved) |  | 5 (Growth inhibition effect is equal to or greater than 90%, or complete withering is achieved)
7 | O=S(=O)(Cc1c(F)cc(F)cc1OC(F)F)c1ncc(Cl)s1 [Compound 1C-44] | 5 (Growth inhibition effect is equal to or greater than 90%, or complete withering is achieved) | 5 (Growth inhibition effect is equal to or greater than 90%, or complete withering is achieved) | 5 (Growth inhibition effect is equal to or greater than 90%, or complete withering is achieved) |  | 5 (Growth inhibition effect is equal to or greater than 90%, or complete withering is achieved)
8 | O=S(=O)(Cc1c(OC(F)F)ccc(Cl)c1F)c1ncc(Cl)s1 [Compound 1C-45] | 5 (Growth inhibition effect is equal to or greater than 90%, or complete withering is achieved) | 5 (Growth inhibition effect is equal to or greater than 90%, or complete withering is achieved) | 5 (Growth inhibition effect is equal to or greater than 90%, or complete withering is achieved) |  | 5 (Growth inhibition effect is equal to or greater than 90%, or complete withering is achieved)
9 | O=S(=O)(Cc1c(Cl)cccc1OC(F)(F)F)c1ncc(Cl)s1 [Compound 1C-49] | 5 (Growth inhibition effect is equal to or greater than 90%, or complete withering is achieved) | 5 (Growth inhibition effect is equal to or greater than 90%, or complete withering is achieved) | 5 (Growth inhibition effect is equal to or greater than 90%, or complete withering is achieved) |  | 5 (Growth inhibition effect is equal to or greater than 90%, or complete withering is achieved)
10 | O=S(=O)(Cc1c(F)cccc1OCC(F)F)c1ncc(Cl)s1 [Compound 1C-50] | 5 (Growth inhibition effect is equal to or greater than 90%, or complete withering is achieved) | 5 (Growth inhibition effect is equal to or greater than 90%, or complete withering is achieved) | 5 (Growth inhibition effect is equal to or greater than 90%, or complete withering is achieved) |  | 5 (Growth inhibition effect is equal to or greater than 90%, or complete withering is achieved)
11 | O=S(=O)(Cc1c(Cl)cccc1OCC(F)F)c1ncc(Cl)s1 [Compound 1C-51] | 5 (Growth inhibition effect is equal to or greater than 90%, or complete withering is achieved) | 5 (Growth inhibition effect is equal to or greater than 90%, or complete withering is achieved) | 5 (Growth inhibition effect is equal to or greater than 90%, or complete withering is achieved) |  | 5 (Growth inhibition effect is equal to or greater than 90%, or complete withering is achieved)
12 | O=S(=O)(Cc1c(OCC(F)F)cccc1C(F)(F)F)c1ncc(Cl)s1 [Compound 1C-52] | 5 (Growth inhibition effect is equal to or greater than 90%, or complete withering is achieved) | 5 (Growth inhibition effect is equal to or greater than 90%, or complete withering is achieved) | 5 (Growth inhibition effect is equal to or greater than 90%, or complete withering is achieved) |  | 5 (Growth inhibition effect is equal to or greater than 90%, or complete withering is achieved)
13 | O=S(=O)(Cc1ccccc1OCC(F)(F)F)c1ncc(Cl)s1 [Compound 1C-53] | 5 (Growth inhibition effect is equal to or greater than 90%, or complete withering is achieved) | 5 (Growth inhibition effect is equal to or greater than 90%, or complete withering is achieved) | 5 (Growth inhibition effect is equal to or greater than 90%, or complete withering is achieved) |  | 5 (Growth inhibition effect is equal to or greater than 90%, or complete withering is achieved)
14 | O=S(=O)(Cc1c(F)cccc1OCC(F)(F)F)c1ncc(Cl)s1 [Compound 1C-54] | 5 (Growth inhibition effect is equal to or greater than 90%, or complete withering is achieved) | 5 (Growth inhibition effect is equal to or greater than 90%, or complete withering is achieved) | 5 (Growth inhibition effect is equal to or greater than 90%, or complete withering is achieved) |  | 5 (Growth inhibition effect is equal to or greater than 90%, or complete withering is achieved)
